Results as given in paper PMC6642015 (Cell chemical biology, 2019).
Changes are numbered by the printed parent chain.

Key:
Assay in all cases: isothermal titration calorimetry
Format in all cases: binding
human CblA (MMAA) [1] = target: T1, human CblA (MMAA) (Homo sapiens, UniProt Q8IVH4, G278D); details: pH 7.5, 150 mM KCl, 2 mM MgCl2, 20 °C; one-site model
T1 sequence (Q8IVH4 66-418 G278D limits assumed): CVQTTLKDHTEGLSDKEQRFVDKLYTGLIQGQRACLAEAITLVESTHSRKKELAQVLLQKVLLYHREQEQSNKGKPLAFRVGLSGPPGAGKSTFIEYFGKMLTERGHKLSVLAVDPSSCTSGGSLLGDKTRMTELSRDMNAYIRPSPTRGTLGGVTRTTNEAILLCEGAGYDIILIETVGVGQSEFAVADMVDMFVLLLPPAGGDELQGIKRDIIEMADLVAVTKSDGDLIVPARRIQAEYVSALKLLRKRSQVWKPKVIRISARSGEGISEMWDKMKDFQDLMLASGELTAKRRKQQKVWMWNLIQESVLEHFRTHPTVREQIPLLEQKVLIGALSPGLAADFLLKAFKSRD

human CblA (MMAA) [2] = target: T2, human CblA (MMAA) (Homo sapiens, UniProt Q8IVH4, K276A); details: pH 7.5, 150 mM KCl, 2 mM MgCl2, 20 °C; one-site model
T2 sequence (Q8IVH4 66-418 K276A limits assumed): T1 sequence (Q8IVH4 66-418 G278D limits assumed) with K211A, D213G

human CblA (MMAA) [3] = target: T3, human CblA (MMAA) (Homo sapiens, UniProt Q8IVH4)
T3 sequence (Q8IVH4 66-418 limits assumed): T1 sequence (Q8IVH4 66-418 G278D limits assumed) with D213G

human CblA (MMAA) [4] = target: T4, human CblA (MMAA) (Homo sapiens, UniProt Q8IVH4, K276E); details: pH 7.5, 150 mM KCl, 2 mM MgCl2, 20 °C; one-site model
T4 sequence (Q8IVH4 66-418 K276E limits assumed): T1 sequence (Q8IVH4 66-418 G278D limits assumed) with K211E, D213G

human CblA (MMAA) [5] = target: T5, human CblA (MMAA) (Homo sapiens, UniProt Q8IVH4, G274S); details: pH 7.5, 150 mM KCl, 2 mM MgCl2, 20 °C; one-site model
T5 sequence (Q8IVH4 66-418 G274S limits assumed): T1 sequence (Q8IVH4 66-418 G278D limits assumed) with G209S, D213G

human CblA (MMAA) [6] = target: T6, human CblA (MMAA) (Homo sapiens, UniProt Q8IVH4, Q273A); details: pH 7.5, 150 mM KCl, 2 mM MgCl2, 20 °C; one-site model
T6 sequence (Q8IVH4 66-418 Q273A limits assumed): T1 sequence (Q8IVH4 66-418 G278D limits assumed) with Q208A, D213G

With `Nc1nc2c(ncn2[C@@H]2O[C@H](COP(=O)(O)OP(=O)(O)O)[C@@H](O)[C@H]2O)c(=O)[nH]1` [GDP] the KD (human CblA (MMAA) [1]) was “largely unaffected by switch III mutations (Table S1)”, the KD (human CblA (MMAA) [2]) was “largely unaffected by switch III mutations (Table S1)” and the Kd (human CblA (MMAA) [3]) was 1100 ± 300 nM. For the same compound, the KD (human CblA (MMAA) [4]) was “largely unaffected by switch III mutations (Table S1)”, the KD (human CblA (MMAA) [5]) was “largely unaffected by switch III mutations (Table S1)” and the KD (human CblA (MMAA) [6]) was “largely unaffected by switch III mutations (Table S1)”.
